Test [1] is filed under the species Cavia porcellus. Briefly: Chronotropic effect studied in right atria isolated from guinea pig and is expressed in pA2. The note with it: read-out: pA2 (converted).
The species named for test [2] is Rattus norvegicus. Briefly: The compound was tested for percent increase in heart rate with respect to that measured after isoprenaline in 5-10 animals and showing significant increase (p <= 0.05) with respect to baseline values (293 +/- 7 to 310 +/- 5 […]). The format is functional.
Test [3] is filed under the species Cavia porcellus. Briefly: Ionotropic effect in electrically driven left atrial preparation (Atria isolated from guinea pig) and is expressed in pA2. The settings on record: Cardiac atrium, read-out: pA2 (converted).
Test [4] addresses Beta-1 adrenergic receptor (Cavia porcellus). Briefly: Beta-1 adrenergic receptor-Antagonism in isolated guinea pig atria. ( for R-enantiomer). The note with it: read-out: pA2 app (converted).
In test [5] the target is T1, Adrenergic receptor beta (Rattus norvegicus, UniProt P18090+P10608+P26255). Briefly: Inhibition of beta adrenergic receptor isolated from rat ventricle homogenates.
For test [6], the target named is T2, Adrenergic receptor alpha-1 (Rattus norvegicus, UniProt P15823+P23944+P43140).
T2 sequence (P15823 whole entry): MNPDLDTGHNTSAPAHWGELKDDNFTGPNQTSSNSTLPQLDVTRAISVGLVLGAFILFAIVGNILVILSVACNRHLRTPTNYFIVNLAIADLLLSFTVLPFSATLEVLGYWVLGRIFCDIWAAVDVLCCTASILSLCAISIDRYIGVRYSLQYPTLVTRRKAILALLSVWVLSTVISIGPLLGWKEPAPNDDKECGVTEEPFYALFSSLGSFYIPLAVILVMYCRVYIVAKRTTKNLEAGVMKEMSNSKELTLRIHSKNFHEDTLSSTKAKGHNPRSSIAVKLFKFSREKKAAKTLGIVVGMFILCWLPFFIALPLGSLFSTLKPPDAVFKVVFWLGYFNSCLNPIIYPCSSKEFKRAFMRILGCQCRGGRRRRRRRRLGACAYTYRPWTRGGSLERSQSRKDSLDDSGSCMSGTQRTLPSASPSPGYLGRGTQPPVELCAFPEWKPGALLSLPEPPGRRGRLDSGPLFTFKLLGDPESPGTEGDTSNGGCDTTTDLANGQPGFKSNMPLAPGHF
T2 sequence (P23944 whole entry): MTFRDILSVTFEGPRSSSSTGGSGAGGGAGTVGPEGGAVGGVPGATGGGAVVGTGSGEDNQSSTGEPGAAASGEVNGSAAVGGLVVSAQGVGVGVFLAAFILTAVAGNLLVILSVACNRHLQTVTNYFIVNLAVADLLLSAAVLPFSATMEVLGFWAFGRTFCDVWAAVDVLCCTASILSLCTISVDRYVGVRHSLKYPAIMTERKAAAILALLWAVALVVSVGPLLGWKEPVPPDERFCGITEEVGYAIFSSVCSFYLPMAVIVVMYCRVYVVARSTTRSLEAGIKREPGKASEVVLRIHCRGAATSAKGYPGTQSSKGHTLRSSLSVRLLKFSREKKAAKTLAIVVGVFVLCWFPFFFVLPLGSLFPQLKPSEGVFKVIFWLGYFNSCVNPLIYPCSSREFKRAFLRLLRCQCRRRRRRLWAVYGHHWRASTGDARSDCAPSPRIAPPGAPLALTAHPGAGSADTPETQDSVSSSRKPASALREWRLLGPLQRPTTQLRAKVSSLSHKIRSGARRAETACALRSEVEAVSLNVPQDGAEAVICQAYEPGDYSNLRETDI
T2 sequence (P43140 whole entry): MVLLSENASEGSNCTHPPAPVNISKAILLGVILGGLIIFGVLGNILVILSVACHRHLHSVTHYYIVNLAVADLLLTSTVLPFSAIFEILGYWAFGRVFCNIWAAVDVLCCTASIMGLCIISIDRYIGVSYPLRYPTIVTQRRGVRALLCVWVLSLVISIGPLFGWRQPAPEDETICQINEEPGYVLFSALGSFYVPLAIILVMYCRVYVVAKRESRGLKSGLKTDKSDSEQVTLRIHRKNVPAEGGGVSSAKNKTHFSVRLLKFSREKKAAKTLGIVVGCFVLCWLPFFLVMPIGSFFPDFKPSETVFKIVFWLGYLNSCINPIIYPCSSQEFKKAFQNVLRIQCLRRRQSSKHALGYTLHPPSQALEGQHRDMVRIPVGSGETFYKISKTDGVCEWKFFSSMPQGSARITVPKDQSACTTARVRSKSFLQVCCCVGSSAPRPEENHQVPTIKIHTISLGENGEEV
Briefly: Inhibition of alpha-1 adrenergic receptor isolated from rat ventricle homogenates.

Test [7] deals with T3, Adrenergic receptor beta (Rattus norvegicus) (UniProt P18090+P10608+P26255).
Test [8] has as its system Rattus norvegicus. Briefly: Tested for MED (smallest dose giving maximum effect) evaluated by dose-response curve, from 0.1 to 5 mg/kg in 5-10 animals on iv administration. The note with it: dose mg/kg 0.1-5. The format is functional.
The species entered for test [9] is Rattus norvegicus. Briefly: The compound was tested for percent increase in heart rate with respect to that measured after isoprenaline in 5-10 animals. It counts as functional.
The target of test [10] is T1, Adrenergic receptor beta. Briefly: The compound was tested for the concentration to inhibit 50% of Beta adrenergic receptor isolated from rat ventricle homogenates. It counts as functional.
The target in test [11] is T1, Adrenergic receptor beta. Briefly: The compound was tested for the concentration to inhibit 50% of Beta adrenergic receptor isolated from rat ventricle homogenates; ND=not determined.
The target in test [12] is T3, Adrenergic receptor beta (Rattus norvegicus). Briefly: In vitro inhibitory specificity for Beta adrenergic receptor was evaluated; ND=not determined. It counts as protein assay.

Turning to `CC(C)(C)c1ccc(NCC(O)CON=C(C2CC2)C2CC2)cc1` (configuration not stated), the Kb is 12.6 nM in the test filed under Cavia porcellus [1], 50.1 nM in the test listed under Cavia porcellus [3] and 11 nM in test [4]. Further, in the test listed under Rattus norvegicus [2], the Increase stood at 44%. For the same compound, the half-maximal inhibitory concentration (IC50) on Adrenergic receptor beta [5] stood at 3.4 nM; in [6], 70800 nM. The compound also showed a Specificity in [7] of 20800. Also, the MED in the test on Rattus norvegicus [8] is 2 µmol/kg.

As to `CC(C)(Cc1ccc(NCC(O)CON=C(C2CC2)C2CC2)cc1)[N+](=O)[O-]` (configuration not stated), the Increase in the test filed under Rattus norvegicus [9] is on record as 10%. Moreover, the results for the Kb in the test listed under Cavia porcellus [1] and in the test listed under Cavia porcellus [3] were 20 nM and 79.4 nM, respectively. Besides, the IC50 in test [6] is 12600 nM; at Adrenergic receptor beta [10], 3.4 nM. The same compound registered a Specificity in test [7] of 3700. In the test with Rattus norvegicus [8], this compound had an MED of 2.4 µmol/kg.

Regarding `Cc1ccc(NCC(O)CON=C(C2CC2)C2CC2)cc1` (configuration not stated), the Kb is 12.6 nM in the test listed under Cavia porcellus [1], 10 nM in the test listed under Cavia porcellus [3] and 12.6 nM in test [4]. Further, in the test listed under Rattus norvegicus [2], the Increase was 64%. In addition, the figures for the half-inhibitory concentration (IC50) (against Adrenergic receptor beta [5]; in test [6]) were 7.6 nM and 15000 nM, respectively. The same compound showed a Specificity in [7] of 1970. Moreover, the MED with Rattus norvegicus [8] came to 2.5 µmol/kg.

`Oc1ccc(NCC(O)CON=C(C2CC2)C2CC2)cc1` (configuration not stated): the Increase in the test listed under Rattus norvegicus [9] was 10%. Also, the results for the IC50 (against Adrenergic receptor beta [11]; in test [6]) were 10.4 nM and 28300 nM, respectively. Further, the Kb was 79.4 nM in the test listed under Cavia porcellus [1] and 200 nM in the test filed under Cavia porcellus [3]. Moreover, the Specificity in test [12] came out at 2730. The compound further returned an MED in the test with Rattus norvegicus [8] of 3.1 µmol/kg.

Take `OC(CNc1cccc(I)c1)CON=C(C1CC1)C1CC1` (configuration not stated): the Kb in the test listed under Cavia porcellus [1] is 5010 nM; in the test filed under Cavia porcellus [3], 3160 nM. In the test listed under Rattus norvegicus [2], the Increase came out at 42%. In addition, the IC50 was 630 nM at Adrenergic receptor beta [5] and over 100000 nM in [6]. Moreover, the Specificity in test [7] was over 160. The compound also yielded an MED in the test with Rattus norvegicus [8] of 7.8 µmol/kg.

The values are drawn from ChEMBL document CHEMBL1131212, “Synthesis and adrenergic activity of a new series of N-aryl dicyclopropyl ketone oxime ethers: SAR and stereochemical aspects” (J Med Chem, 1998).
